Source: patent publication US20200237766A1, “PKM2 ACTIVATORS IN COMBINATION WITH REACTIVE OXYGEN SPECIES FOR TREATMENT OF CANCER” (TOLERO PHARMACEUTICALS, INC., priority 2017, published 2020)
Like-named read-outs stand apart in the source and are kept apart here.

Biological target: PKM2 (Homo sapiens, UniProt P14618)
Test: PKM2 activation biochemical assay (AC50 / max. response vs fructose 1,6-bisphosphate)
Settings: for Max. Resp. (%): % maximum response in a biochemical assay as compared with Fructose 1,6-bisphosphate
[1] = biochemical assay, read-out: PKM2 AC50

Chain of PKM2 (P14618 whole entry): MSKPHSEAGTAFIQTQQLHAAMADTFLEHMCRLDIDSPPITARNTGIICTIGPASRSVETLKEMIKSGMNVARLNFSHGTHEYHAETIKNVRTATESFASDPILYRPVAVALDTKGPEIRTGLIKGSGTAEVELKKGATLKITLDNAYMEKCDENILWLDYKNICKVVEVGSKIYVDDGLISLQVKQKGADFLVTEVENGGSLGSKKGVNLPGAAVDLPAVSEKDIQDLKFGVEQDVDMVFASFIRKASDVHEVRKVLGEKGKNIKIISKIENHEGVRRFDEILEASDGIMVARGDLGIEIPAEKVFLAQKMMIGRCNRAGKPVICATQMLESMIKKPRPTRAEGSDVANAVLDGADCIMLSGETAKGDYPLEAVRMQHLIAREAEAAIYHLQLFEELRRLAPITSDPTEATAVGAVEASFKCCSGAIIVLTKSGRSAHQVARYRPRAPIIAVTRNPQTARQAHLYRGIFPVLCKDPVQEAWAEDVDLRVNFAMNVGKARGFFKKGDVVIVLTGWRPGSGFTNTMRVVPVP

Question: What does the source list for `O=C(c1cc(C(F)(F)F)n[nH]1)N(CCC1CCSCC1)Cc1ccccc1Cl` [Compound 73]?
Answer: Max. Resp. (%): 79%; AC50 [1]: 1340 nM

Question: Which results are given for `O=C(c1cc(C(F)(F)F)n[nH]1)N(CCC1CC[S+]([O-])CC1)Cc1ccccc1Cl` (stereo not drawn) [Compound 74]?
Answer: Max. Resp. (%): 95%; AC50 [1]: 640 nM

Question: How did the “Max. Resp. (%)” value turn out when `O=C(c1cc(C(F)(F)F)n[nH]1)N(CCC1CCS(=O)(=O)CC1)Cc1ccccc1Cl` [Compound 75] was run?
Answer: Its value is 102%.

Question: What about the AC50 [1] of the same compound?
Answer: The AC50 was 188 nM.

Question: `O=C(c1cc(C(F)(F)F)n[nH]1)N(CCC1CCS(=O)(=O)C1)Cc1ccc(O)cc1F` (stereo not drawn) [Compound 76] was tested. Which “Max. Resp. (%)” value did it give?
Answer: The value was 93%.

Question: And the AC50 [1]?
Answer: Its AC50 is 54 nM.

Question: With `Nc1ccccc1CN(CCC1CCS(=O)(=O)C1)C(=O)c1cc(C(F)(F)F)n[nH]1` (stereo not drawn) [Compound 77] as the compound, how does the AC50 read?
Answer: Its AC50 is 34800 nM.

Question: And the “Max. Resp. (%)” value?
Answer: The value was 43%.

Question: With `O=C(c1cc(C(F)(F)F)n[nH]1)N(CCC1CCS(=O)(=O)CC1)Cc1ccccc1Cl` [Compound 78] as the compound, how does the AC50 [1] read?
Answer: The AC50 was 485 nM.

Question: For `O=C(c1cc(C(F)(F)F)n[nH]1)N(CCC1CCSCC1)Cc1ccccc1F` [Compound 79], which “Max. Resp. (%)” value is on record?
Answer: Its value is 95%.

Question: What about the AC50 [1] of the same compound?
Answer: Its AC50 is 1190 nM.

Question: What does the source list for `O=C(c1cc(Cl)n[nH]1)N(CCC1CCSCC1)Cc1ccccc1F` [Compound 80]?
Answer: AC50: 1300 nM; Max. Resp. (%): 46%

Question: For `O=C(c1cc(Cl)n[nH]1)N(CCC1CCS(=O)(=O)CC1)Cc1ccccc1F` [Compound 81], which AC50 is on record?
Answer: Its AC50 is 1370 nM.

Question: And the “Max. Resp. (%)” value?
Answer: The value was 72%.

Question: What does the source list for `O=C(c1cc(Br)n[nH]1)N(CCC1CCSCC1)Cc1ccccc1F` [Compound 82]?
Answer: Max. Resp. (%): 74%; AC50 [1]: 1370 nM

Question: Which “Max. Resp. (%)” value does the source give for `O=C(c1cc(Br)n[nH]1)N(CCC1CCS(=O)(=O)CC1)Cc1ccccc1F` [Compound 83] here?
Answer: Its value is 98%.

Question: What about the AC50 [1] of the same compound?
Answer: Its AC50 is 1100 nM.

Question: For `O=C(c1cc(C(F)(F)F)n[nH]1)N(CCC1CCSCC1)Cc1c(F)cccc1F` [Compound 84], which “Max. Resp. (%)” value is on record?
Answer: Its value is 73%.

Question: And the AC50 [1]?
Answer: The AC50 was 697 nM.

Question: What does the source list for `O=C(c1cc(C(F)(F)F)n[nH]1)N(CCC1CCS(=O)(=O)CC1)Cc1c(F)cccc1F` [Compound 85]?
Answer: Max. Resp. (%): 100%; AC50 [1]: 64 nM

Question: Which results are given for `O=C(c1cc(C(F)(F)F)n[nH]1)N(CCC1CCSCC1)Cc1ccc(O)cc1F` [Compound 86]?
Answer: Max. Resp. (%): 98%; AC50 [1]: 93 nM

Question: Which results are given for `O=C(c1cc(C(F)(F)F)n[nH]1)N(CCC1CCS(=O)(=O)CC1)Cc1ccc(O)cc1F` [Compound 87]?
Answer: Max. Resp. (%): 100%; AC50 [1]: 64 nM

Question: With `O=C(c1cc(C(F)(F)F)n[nH]1)N(CCC1CCS(=O)(=O)C1)Cc1ccccn1` (stereo not drawn) [Compound 88] as the compound, how does the “Max. Resp. (%)” value read?
Answer: The value was 96%.

Question: And the AC50 [1]?
Answer: Its AC50 is 3600 nM.

Question: `O=C(c1cc(C(F)(F)F)n[nH]1)N(CCC1CCS(=O)(=O)C1)Cc1ccncc1` (stereo not drawn) [Compound 89] was tested. Which “Max. Resp. (%)” value did it give?
Answer: The value was 35%.

Question: What about the AC50 [1] of the same compound?
Answer: Its AC50 is 58000 nM.

Question: Which results are given for `O=C(c1cc(C(F)(F)F)n[nH]1)N(CCC1CCS(=O)(=O)C1)Cc1cccnc1` (stereo not drawn) [Compound 90]?
Answer: Max. Resp. (%): 24%; AC50 [1]: 52000 nM

Question: For `O=C(c1cc(C(F)(F)F)n[nH]1)N(CCC1CCS(=O)(=O)C1)Cc1ncccc1Cl` (stereo not drawn) [Compound 92], which “Max. Resp. (%)” value is on record?
Answer: Its value is 74%.

Question: And the AC50 [1]?
Answer: Its AC50 is 1290 nM.

Question: With `O=C(c1cc(C(F)(F)F)n[nH]1)N(CCC1CCS(=O)(=O)C1)Cc1cncs1` (stereo not drawn) [Compound 93] as the compound, how does the AC50 read?
Answer: The AC50 was 49000 nM.

Question: And the “Max. Resp. (%)” value?
Answer: Its value is 26%.

Question: `O=C(c1cc(C(F)(F)F)n[nH]1)N(CCC1CCS(=O)(=O)C1)Cc1cccc([N+](=O)[O-])c1Cl` (stereo not drawn) [Compound 94] was tested. Which “Max. Resp. (%)” value did it give?
Answer: Its value is 69%.

Question: What about the AC50 [1] of the same compound?
Answer: The AC50 was 2380 nM.

Question: What does the source list for `O=C(c1cc(C(F)(F)F)n[nH]1)N(CCC1CCNCC1)Cc1ccccc1F` [Compound 98]?
Answer: AC50: 2050 nM; Max. Resp. (%): 56%

Question: What does the source list for `CS(=O)(=O)N1CCC(CCN(Cc2ccccc2F)C(=O)c2cc(C(F)(F)F)n[nH]2)CC1` [Compound 99]?
Answer: Max. Resp. (%): 100%; AC50 [1]: 110 nM

Question: With `CN1CCC(CN(Cc2ccccc2F)C(=O)c2cc(C(F)(F)F)n[nH]2)CC1` [Compound 100] as the compound, how does the “Max. Resp. (%)” value read?
Answer: The value was 29%.

Question: What about the AC50 [1] of the same compound?
Answer: Its AC50 is 101000 nM.

Question: Which “Max. Resp. (%)” value does the source give for `CCN1CCC(CCN(Cc2ccccc2Cl)C(=O)c2cc(C(F)(F)F)n[nH]2)CC1` [Compound 101] here?
Answer: The value was 96%.

Question: And the AC50 [1]?
Answer: Its AC50 is 1860 nM.

Question: With `CN1CCC(CCN(Cc2ccccc2Cl)C(=O)c2cc(C(F)(F)F)n[nH]2)CC1` [Compound 102] as the compound, how does the “Max. Resp. (%)” value read?
Answer: Its value is 71%.

Question: And the AC50 [1]?
Answer: The AC50 was 767 nM.
